The results in this text go back to patent US20240207264A1, “PHARMACEUTICAL COMPOSITIONS COMPRISING INHIBITORS OF THE ANDROGEN RECEPTOR AND USES THEREOF” (ESSA PHARMA INC., priority 2021, published 2024).

The series is described as follows: Phase I clinical study, PK. It counts as in vivo, human. To be noted: patients; for Cmax / Tmax / AUC(0-t) / half-life: po, 200 mg/day; for AUC(0-t): read-out: AUC0-24; for half-life: read-out: t½ (converted). As for the experimental part: Phase I clinical research study of Compound A is studied as a treatment for patients with prostate cancer. All patients in the study receives Compound A at a once daily oral dose of 200 mg, 400 mg, 600 mg, 800 mg, or 1000 mg. Compound A in this study is provided as an SDD composition with HPMCAS-H. One cycle of treatment is 28 days of dosing.
PK parameters were measured from 4 subjects who were administered at 200 mg/day dose (Table 33). One patient discontinued before day 28 due to disease progression. 2 subjects received both abiraterone and enzalutamide prior treatments. 3 subjects received prior chemotherapy with taxanes.

Setting [1] is: male, human, in vivo, 200 mg/day oral SDD with HPMCAS-H, Day 1, N 4.
Where [2] appears, read: male, human, in vivo, 200 mg/day oral SDD with HPMCAS-H, Day 28, N 3.

The structures appear in SMILES notation. Read-outs that look alike come from different tables or passages of the source.

Usually Cmax stands for the highest concentration seen after dosing. One may read the Tmax as the time from dosing to the highest level. `CC(C)(c1ccc(OCc2ccnc(NS(C)(=O)=O)n2)cc1)c1cc(Cl)c(OCCCl)c(C#N)c1` [Compound A, N-(4-((4-(2-(3-chloro-4-(2-chloroethoxy)-5-cyanophenyl)propan-2-yl)phenoxy)methyl)pyrimidin-2-yl)methanesulfonamide]: under setting [1], the maximum concentration (Cmax) came to 3300 ng/mL, the Tmax worked out at 6.5 h, the AUC(0-t) worked out at 53.9 µg·h/mL and the half-life was 22 h. Moreover, under setting [2], the Cmax turned out to be 8020 ng/mL, the Tmax stood at 6.7 h, the AUC(0-t) is 147 µg·h/mL and the half-life was 24.8 h. For the same compound, the concentration at 28 day (male, human, in vivo, 200 mg/day oral SDD with HPMCAS-H, Day 28, N 3, read-out: Clast) stood at 4590 ng/mL. The Clast (200 mg/day oral SDD with HPMCAS-H, Day 1, N 4) was 1,808 ng/mL. Where the note is “repeat QD dosing 200 mg/day”, the “time to steady state” value is given as “after day 8”.
